# Experimental data as given in the kinase profiling compilation of Christmann-Franck et al. (2016).
# Experiments:
# Assay in all cases: KINOMEscan competition binding
# Conditions in all cases: compound 0.5 µM
# FER (human) = FER (human) (UniProt P16591)
# RAF1 (human) = RAF1 (human) (UniProt P04049)
# DYRK2 (human) = DYRK2 (human) (UniProt Q92630)
# INSR (human) = INSR (human) (UniProt P06213)
# CDK5 (human) = CDK5 (human) (UniProt Q00535)
# HIPK2 (human) = HIPK2 (human) (UniProt Q9H2X6)
# PIK3C2G (human) = PIK3C2G (human) (UniProt O75747)
# LATS1 (human) = LATS1 (human) (UniProt O95835)
# CDK7 (human) = CDK7 (human) (UniProt P50613)
# [1] = tested on: FLT3 (human), P36888 [N841I]
# STK33 (human) = STK33 (human) (UniProt Q9BYT3)
# MARK3 (human) = MARK3 (human) (UniProt P27448)
# RIPK4 (human) = RIPK4 (human) (UniProt P57078)
# ULK1 (human) = ULK1 (human) (UniProt O75385)
# SRMS (human) = SRMS (human) (UniProt Q9H3Y6)
# BMPR1B (human) = BMPR1B (human) (UniProt O00238)
# AURKB (human) = AURKB (human) (UniProt Q96GD4)
# STK32A (human) = STK32A (human) (UniProt Q8WU08)
# PIP4K2C (human) = PIP4K2C (human) (UniProt Q8TBX8)
# STK36 (human) = STK36 (human) (UniProt Q9NRP7)
# MARK2 (human) = MARK2 (human) (UniProt Q7KZI7)
# CIT (human) = CIT (human) (UniProt O14578)
# [2] = tested on: RET (human), P07949 [V804L]
# GRK4 (human) = GRK4 (human) (UniProt P32298)
# EPHA8 (human) = EPHA8 (human) (UniProt P29322)
# PRKCH (human) = PRKCH (human) (UniProt P24723)
# MYLK2 (human) = MYLK2 (human) (UniProt Q9H1R3)
# [3] = tested on: PIK3CA (human), P42336 [Q546K]
# IRAK1 (human) = IRAK1 (human) (UniProt P51617)
# SBK1 (human) = SBK1 (human) (UniProt Q52WX2)
# TNIK (human) = TNIK (human) (UniProt Q9UKE5)
# LTK (human) = LTK (human) (UniProt P29376)
# HIPK4 (human) = HIPK4 (human) (UniProt Q8NE63)
# CDC2L2 (human) = CDC2L2 (human) (UniProt Q9UQ88)
# CSK (human) = CSK (human) (UniProt P41240)
# PIP5K1A (human) = PIP5K1A (human) (UniProt Q99755)
# RPS6KA2 KD1 (human) = RPS6KA2 KD1 (human) (UniProt Q15349)
# [4] = tested on: PIK3CA (human), P42336 [E545K]
# DCLK1 (human) = DCLK1 (human) (UniProt O15075)
# MYLK3 (human) = MYLK3 (human) (UniProt Q32MK0)
# MAP3K2 (human) = MAP3K2 (human) (UniProt Q9Y2U5)
# FGFR3 (human) = FGFR3 (human) (UniProt P22607)
# IRAK1 (human), sequence (P51617 whole entry, looked up): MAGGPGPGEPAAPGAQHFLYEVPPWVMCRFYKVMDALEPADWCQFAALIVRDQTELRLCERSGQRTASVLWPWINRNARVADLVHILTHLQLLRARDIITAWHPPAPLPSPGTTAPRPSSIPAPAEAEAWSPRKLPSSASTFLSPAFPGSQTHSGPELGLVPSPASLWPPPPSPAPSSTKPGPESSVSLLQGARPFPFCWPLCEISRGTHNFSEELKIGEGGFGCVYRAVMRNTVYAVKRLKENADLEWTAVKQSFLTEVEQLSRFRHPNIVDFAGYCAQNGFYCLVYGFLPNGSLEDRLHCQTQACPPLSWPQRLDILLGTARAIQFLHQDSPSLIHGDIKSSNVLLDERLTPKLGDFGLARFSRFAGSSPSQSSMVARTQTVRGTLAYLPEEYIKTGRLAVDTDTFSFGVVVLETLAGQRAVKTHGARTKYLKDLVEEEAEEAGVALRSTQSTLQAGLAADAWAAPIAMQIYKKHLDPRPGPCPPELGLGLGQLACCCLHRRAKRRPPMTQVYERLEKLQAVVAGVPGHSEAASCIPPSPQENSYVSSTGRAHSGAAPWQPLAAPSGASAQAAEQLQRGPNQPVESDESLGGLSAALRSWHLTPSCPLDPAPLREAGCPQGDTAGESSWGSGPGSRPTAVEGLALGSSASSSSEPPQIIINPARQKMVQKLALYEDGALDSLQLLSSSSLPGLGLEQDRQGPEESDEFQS
# RIPK4 (human), sequence (P57078 whole entry, looked up): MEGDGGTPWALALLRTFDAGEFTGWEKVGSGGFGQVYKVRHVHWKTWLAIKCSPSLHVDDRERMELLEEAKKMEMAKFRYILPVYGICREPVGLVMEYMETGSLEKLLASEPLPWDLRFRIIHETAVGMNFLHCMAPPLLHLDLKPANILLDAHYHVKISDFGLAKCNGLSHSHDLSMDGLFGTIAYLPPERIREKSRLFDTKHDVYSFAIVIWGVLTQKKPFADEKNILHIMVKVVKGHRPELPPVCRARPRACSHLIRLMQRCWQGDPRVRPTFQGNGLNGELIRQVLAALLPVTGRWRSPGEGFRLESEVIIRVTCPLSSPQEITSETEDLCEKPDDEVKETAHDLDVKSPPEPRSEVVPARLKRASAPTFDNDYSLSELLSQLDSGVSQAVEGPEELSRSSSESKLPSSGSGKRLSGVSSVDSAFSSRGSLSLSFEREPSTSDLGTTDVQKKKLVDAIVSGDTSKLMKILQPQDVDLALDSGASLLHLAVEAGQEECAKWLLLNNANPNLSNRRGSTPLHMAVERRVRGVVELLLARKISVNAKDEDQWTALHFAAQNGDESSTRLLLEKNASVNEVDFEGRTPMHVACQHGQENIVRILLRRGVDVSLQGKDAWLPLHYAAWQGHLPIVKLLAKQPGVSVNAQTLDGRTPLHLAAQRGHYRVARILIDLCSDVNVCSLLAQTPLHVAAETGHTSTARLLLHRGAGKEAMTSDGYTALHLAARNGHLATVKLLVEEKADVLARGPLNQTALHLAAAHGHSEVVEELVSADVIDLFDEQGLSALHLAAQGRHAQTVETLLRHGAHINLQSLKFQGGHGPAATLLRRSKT
# CDC2L2 (human), sequence (Q9UQ88 whole entry, looked up): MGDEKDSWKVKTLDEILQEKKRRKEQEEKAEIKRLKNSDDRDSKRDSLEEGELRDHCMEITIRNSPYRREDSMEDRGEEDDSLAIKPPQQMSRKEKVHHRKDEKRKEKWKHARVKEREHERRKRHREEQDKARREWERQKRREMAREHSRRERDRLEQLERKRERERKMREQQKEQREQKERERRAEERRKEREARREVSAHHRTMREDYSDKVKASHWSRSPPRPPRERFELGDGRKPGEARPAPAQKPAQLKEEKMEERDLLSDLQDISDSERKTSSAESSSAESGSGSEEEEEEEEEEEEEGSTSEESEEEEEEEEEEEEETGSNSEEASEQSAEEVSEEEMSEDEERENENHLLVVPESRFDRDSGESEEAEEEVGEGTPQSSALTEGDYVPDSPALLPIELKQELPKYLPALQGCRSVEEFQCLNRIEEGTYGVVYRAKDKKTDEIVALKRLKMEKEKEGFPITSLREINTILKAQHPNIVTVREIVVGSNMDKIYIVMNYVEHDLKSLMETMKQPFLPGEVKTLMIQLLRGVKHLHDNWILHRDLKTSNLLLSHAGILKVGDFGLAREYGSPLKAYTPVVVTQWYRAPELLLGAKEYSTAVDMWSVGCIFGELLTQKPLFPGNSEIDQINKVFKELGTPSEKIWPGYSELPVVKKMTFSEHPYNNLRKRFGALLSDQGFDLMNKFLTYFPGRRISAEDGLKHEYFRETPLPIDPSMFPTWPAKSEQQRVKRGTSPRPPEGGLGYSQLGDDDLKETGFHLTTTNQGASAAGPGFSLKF
# STK32A (human), sequence (Q8WU08 whole entry, looked up): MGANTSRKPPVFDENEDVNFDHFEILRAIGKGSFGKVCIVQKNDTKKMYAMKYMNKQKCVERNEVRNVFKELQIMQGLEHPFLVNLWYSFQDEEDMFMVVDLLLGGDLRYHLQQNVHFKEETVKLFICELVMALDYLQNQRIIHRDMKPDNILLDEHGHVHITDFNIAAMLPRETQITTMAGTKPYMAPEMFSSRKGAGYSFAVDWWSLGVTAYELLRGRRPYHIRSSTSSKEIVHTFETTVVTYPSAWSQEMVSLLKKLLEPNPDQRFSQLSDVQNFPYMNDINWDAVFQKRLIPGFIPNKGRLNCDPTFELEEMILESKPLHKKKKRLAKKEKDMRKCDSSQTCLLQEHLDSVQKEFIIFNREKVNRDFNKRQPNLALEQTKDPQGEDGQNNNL
# DYRK2 (human), sequence (Q92630 whole entry, looked up): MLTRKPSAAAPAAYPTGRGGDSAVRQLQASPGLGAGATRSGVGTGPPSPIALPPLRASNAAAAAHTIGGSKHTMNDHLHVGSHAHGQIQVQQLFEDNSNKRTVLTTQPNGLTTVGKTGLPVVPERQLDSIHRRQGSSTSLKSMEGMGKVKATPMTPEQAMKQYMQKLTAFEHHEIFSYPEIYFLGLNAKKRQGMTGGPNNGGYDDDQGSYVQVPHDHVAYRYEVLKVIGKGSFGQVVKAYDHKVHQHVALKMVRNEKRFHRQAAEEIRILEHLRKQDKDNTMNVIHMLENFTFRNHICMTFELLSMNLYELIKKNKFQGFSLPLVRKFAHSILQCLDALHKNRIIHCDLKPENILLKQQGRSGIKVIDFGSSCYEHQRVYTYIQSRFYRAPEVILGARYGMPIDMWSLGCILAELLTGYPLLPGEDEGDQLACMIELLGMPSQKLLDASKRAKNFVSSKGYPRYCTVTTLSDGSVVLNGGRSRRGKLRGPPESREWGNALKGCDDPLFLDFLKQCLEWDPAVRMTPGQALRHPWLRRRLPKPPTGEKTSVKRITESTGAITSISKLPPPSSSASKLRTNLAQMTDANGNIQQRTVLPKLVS
# STK33 (human), sequence (Q9BYT3 whole entry, looked up): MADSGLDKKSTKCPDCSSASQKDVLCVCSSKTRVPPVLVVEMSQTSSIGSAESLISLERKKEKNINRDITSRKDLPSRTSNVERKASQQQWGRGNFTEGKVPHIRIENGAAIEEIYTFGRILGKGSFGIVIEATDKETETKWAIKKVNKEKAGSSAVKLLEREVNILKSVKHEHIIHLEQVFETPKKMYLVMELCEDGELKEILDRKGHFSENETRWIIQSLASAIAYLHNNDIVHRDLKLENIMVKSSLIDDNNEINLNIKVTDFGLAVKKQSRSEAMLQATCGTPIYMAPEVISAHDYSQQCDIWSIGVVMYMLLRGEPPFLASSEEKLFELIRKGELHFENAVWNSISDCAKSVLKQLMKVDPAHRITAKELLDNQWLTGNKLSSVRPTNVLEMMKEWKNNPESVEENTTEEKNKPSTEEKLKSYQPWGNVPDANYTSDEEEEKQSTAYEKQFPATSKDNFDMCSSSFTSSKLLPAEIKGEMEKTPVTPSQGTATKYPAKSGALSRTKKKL
# AURKB (human), sequence (Q96GD4 whole entry, looked up): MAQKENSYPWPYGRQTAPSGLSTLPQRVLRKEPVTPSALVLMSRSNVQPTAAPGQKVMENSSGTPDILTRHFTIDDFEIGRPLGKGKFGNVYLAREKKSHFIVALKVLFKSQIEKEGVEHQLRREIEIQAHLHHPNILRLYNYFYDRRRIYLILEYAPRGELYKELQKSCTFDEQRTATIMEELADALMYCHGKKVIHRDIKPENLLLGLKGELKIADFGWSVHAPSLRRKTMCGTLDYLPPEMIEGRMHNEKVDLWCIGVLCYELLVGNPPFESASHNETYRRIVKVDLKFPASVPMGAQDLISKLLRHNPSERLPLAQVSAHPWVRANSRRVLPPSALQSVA
# CDK5 (human), sequence (Q00535 whole entry, looked up): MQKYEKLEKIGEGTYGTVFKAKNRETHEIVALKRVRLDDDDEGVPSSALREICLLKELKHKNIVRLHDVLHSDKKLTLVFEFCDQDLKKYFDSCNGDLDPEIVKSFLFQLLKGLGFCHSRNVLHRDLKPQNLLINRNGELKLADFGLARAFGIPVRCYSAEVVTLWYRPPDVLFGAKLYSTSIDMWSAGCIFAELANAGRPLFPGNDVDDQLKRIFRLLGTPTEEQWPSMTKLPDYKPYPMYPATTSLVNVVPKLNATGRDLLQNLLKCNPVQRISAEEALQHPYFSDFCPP
# PIP4K2C (human), sequence (Q8TBX8 whole entry, looked up): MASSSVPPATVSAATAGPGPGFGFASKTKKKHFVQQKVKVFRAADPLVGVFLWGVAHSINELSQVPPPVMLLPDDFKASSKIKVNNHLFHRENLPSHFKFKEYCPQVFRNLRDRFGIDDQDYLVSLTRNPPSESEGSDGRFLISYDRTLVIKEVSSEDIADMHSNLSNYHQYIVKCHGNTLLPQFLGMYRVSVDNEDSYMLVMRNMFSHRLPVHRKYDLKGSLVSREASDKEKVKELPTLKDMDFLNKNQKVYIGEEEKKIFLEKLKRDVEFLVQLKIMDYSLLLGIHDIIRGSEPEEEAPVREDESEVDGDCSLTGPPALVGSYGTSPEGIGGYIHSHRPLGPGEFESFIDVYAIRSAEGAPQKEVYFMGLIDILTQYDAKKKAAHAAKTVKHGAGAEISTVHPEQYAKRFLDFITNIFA
smiles,measurement,setting,value
Cn1c2ccccc2c2c3c(c4c5ccccc5n(CCC#N)c4c21)CNC3=O,"kinase still bound, per cent of control",FER (human),3.2%
same,"kinase still bound, per cent of control",RAF1 (human),100%
same,"kinase still bound, per cent of control",DYRK2 (human),37%
same,"kinase still bound, per cent of control",INSR (human),84%
same,"kinase still bound, per cent of control",CDK5 (human),61%
same,"kinase still bound, per cent of control",HIPK2 (human),15%
same,"kinase still bound, per cent of control",PIK3C2G (human),70%
same,"kinase still bound, per cent of control",LATS1 (human),31%
same,"kinase still bound, per cent of control",CDK7 (human),84%
same,"kinase still bound, per cent of control",[1],0%
same,"kinase still bound, per cent of control",STK33 (human),1.5%
same,"kinase still bound, per cent of control",MARK3 (human),16%
same,"kinase still bound, per cent of control",RIPK4 (human),5.2%
same,"kinase still bound, per cent of control",ULK1 (human),92%
same,"kinase still bound, per cent of control",SRMS (human),100%
same,"kinase still bound, per cent of control",BMPR1B (human),56%
same,"kinase still bound, per cent of control",AURKB (human),32%
same,"kinase still bound, per cent of control",STK32A (human),94%
same,"kinase still bound, per cent of control",PIP4K2C (human),75%
same,"kinase still bound, per cent of control",STK36 (human),100%
same,"kinase still bound, per cent of control",MARK2 (human),9.8%
same,"kinase still bound, per cent of control",CIT (human),34%
same,"kinase still bound, per cent of control",[2],0.1%
same,"kinase still bound, per cent of control",GRK4 (human),3%
same,"kinase still bound, per cent of control",EPHA8 (human),90%
same,"kinase still bound, per cent of control",PRKCH (human),18%
same,"kinase still bound, per cent of control",MYLK2 (human),58%
same,"kinase still bound, per cent of control",[3],100%
same,"kinase still bound, per cent of control",IRAK1 (human),14%
same,"kinase still bound, per cent of control",SBK1 (human),82%
same,"kinase still bound, per cent of control",TNIK (human),0.3%
same,"kinase still bound, per cent of control",LTK (human),4.2%
same,"kinase still bound, per cent of control",HIPK4 (human),8%
same,"kinase still bound, per cent of control",CDC2L2 (human),84%
same,"kinase still bound, per cent of control",CSK (human),100%
same,"kinase still bound, per cent of control",PIP5K1A (human),1.6%
same,"kinase still bound, per cent of control",RPS6KA2 KD1 (human),5.4%
same,"kinase still bound, per cent of control",[4],100%
same,"kinase still bound, per cent of control",DCLK1 (human),87%
same,"kinase still bound, per cent of control",MYLK3 (human),100%
same,"kinase still bound, per cent of control",MAP3K2 (human),0.1%
same,"kinase still bound, per cent of control",FGFR3 (human),97%
